# Experimental data reported in PMC5591855, “d-Tubocurarine and Berbamine: Alkaloids That Are Permeant Blockers of the Hair Cell's Mechano-Electrical Transducer Channel and Protect from Aminoglycoside Toxicity” (Frontiers in Cellular Neuroscience, 2017).
# Tested on: T1, mechano-electrical transducer (MET) channel
# T1 construct: native channel in CD-1 mouse cochlear outer hair cells (organotypic cultures)
# Test: whole-cell patch clamp of MET currents, extracellular block at -104 mV, […] Ca2+
# Type: cell-based, Mus musculus
# Settings: read-out: Kd
row,Molecule,IC50
1,"COc1cc2c3cc1Oc1cc(ccc1O)C[C@@H]1c4c(cc(OC)c(O)c4Oc4ccc(cc4)C[C@@H]3N(C)CC2)CC[N+]1(C)C [dTC, d-Tubocurarine]",2200 nM
2,berbamine,2800 nM
